Experiments:
uterus and bone = experiment: Selective bone action test: uterus weight, uterine epithelium depth and trabecular bone density of proximal tibia in ovarectomized rats; assay type: in vivo, rat; settings: combination with 17β-oestradiol, ovarectomized rats 3 months old, treated 28 days, FIGS. 1-3
Protocol: (§1) In the FIG. 1 means: control (only solvent), 2: 0.3 μg of oestradiol, 3: 75 μg of test substance, 4: 75 μg of test substance+0.03 μg of oestradiol, 5: 75 μg of test substance+0.1 μg of oestradiol, 6: 75 μg of test substance+0.3 μg of oestradiol, 7: 75 μg of test substance+1.0 μg of oestradiol, 8: 75 μg of test substance+3.0 μg of oestradiol.
as §1, with “μg of oestradibl, 3: 75” for “μg of oestradiol, 3: 75”
The doses of the oestrogen and antioestrogen to be used for the selective bone action test must be established to begin with in preliminary investigations.
The dose of the antioestrogen to be used is determined by an antiuterus growth test in the oestradiol-substituted, ovarectomized rat. […]
After 28 days, the animals are killed and the uterus weight, as well as the trabecular bone density in the proximal tibia, is measured. The uterus weight is determined by weighing the uterus moist weight immediately after organ removal. The trabecular bone density is determined ex vivo by bone density measurements in the secondary spongiosa of the proximal tibia using a QCT (Stratec XCT 960A).

central nervous system = settings: Biegon et al. 1996; cited from earlier work

CN(CCCCC[C@@H]1Cc2cc(O)ccc2[C@@H]2[C@@H]1[C@@H]1CC[C@H](O)[C@@]1(C)C[C@@H]2F)CCCSCCCC(F)(F)C(F)(F)F [Example 1, 11β-fluoro-7α-{5-[N-methyl-N-3-(4,4,5,5,5-pentafluoropentylthio)propylamino]pentyl}-oestra-1,3,5(10)-triene-3,17β-diol]
selective action of the combination on bone versus uterus (uterus and bone): selectively active

CC/C(=C(\c1ccccc1)c1ccc(OCCN(C)C)cc1)c1ccccc1 [tamoxifen]
action in the central nervous system (central nervous system): acts there as an oestroaenic antagonist
